Each molecule was assayed against GABAA receptor (assay: Steroid inhibition of [35S]-TBPS binding, rat brain cortical membranes). Settings: 3 nM [35S]-TBPS, in the presence of 5 mM GABA.
Protocol: [^35S]-t-Butylbicyclophosphorothionate (TBPS) binding assays using rat brain cortical membranes in the presence of 5 mM GABA has been described (Gee et al, J. Pharmacol. Exp. Ther. 1987, 241, 346-353; Hawkinson et al, Mol. Pharmacol. 1994, 46, 977-985; Lewin, A. H et al., Mol. Pharmacol. 1989, 35, 189-194).
Briefly, cortices are rapidly removed following decapitation of carbon dioxide-anesthetized Sprague-Dawley rats (200-250 g). The cortices are homogenized in 10 volumes of ice-cold 0.32 M sucrose using a glass/teflon homogenizer and centrifuged at 1500×g for 10 min at 4° C. The resultant supernatants are centrifuged at 10,000×g for 20 min at 4° C. to obtain the P2 pellets. The P2 pellets are resuspended in 200 mM NaCl/50 mM Na—K phosphate pH 7.4 buffer and centrifuged at 10,000×g for 10 min at 4° C. This washing procedure is repeated twice and the pellets are resuspended in 10 volumes of buffer. Aliquots ([…]) of the membrane suspensions are incubated with 3 nM [^35S]-TBPS and […] aliquots of test drug dissolved in dimethyl sulfoxide (DMSO) (final 0.5%) in the presence of 5 mM GABA. The incubation is brought to a final volume of 1.0 mL with buffer. Nonspecific binding is determined in the presence of […] and ranged from 15 to 25%. Following a 90 min incubation at room temp, the assays are terminated by filtration through glass fiber filters (Schleicher and Schuell No. 32) using a cell harvester (Brandel) and rinsed three times with ice-cold buffer. Filter bound radioactivity is measured by liquid scintillation spectrometry. Non-linear curve fitting of the overall data for each drug averaged for each concentration is done using Prism (GraphPad). […] The concentration of test compound producing 50% inhibition (IC50) of specific binding and the maximal extent of inhibition (Imax) are determined for the individual experiments with the same model used for the overall data and then the means±SEM.s of the individual experiments are calculated.
Various compounds are or can be screened to determine their potential as modulators of [^35S]-TBPS binding in vitro. These assays are or can be performed in accordance with the above

| Compound | IC50 [nM] |
| --- | --- |
| CCC[C@@]1(O)CC[C@H]2[C@H](CC[C@@H]3[C@@H]2CC[C@@]2(C)[C@H]3CC[C@@H]2[C@](C)(Cn2cc(C#N)cn2)OC)C1 [Compound 37, 1-((R)-2-((3R,5R,8R,9R,10S,13S,14S,17S)-3-hydroxy-13-methyl-3-propylhexadecahydro-1H-cyclopenta[a]phenanthren-17-yl)-2-methoxypropyl)-1H-pyrazole-4-carbonitrile] | 100 to 1000 |
| COC[C@@]1(O)CC[C@H]2[C@H](CC[C@@H]3[C@@H]2CC[C@]2(C)[C@@H](C(F)(F)Cn4cc(C#N)cn4)CC[C@@H]32)C1 [Compound 38, 1-(2,2-difluoro-2-((3R,5R,8R,9R,10S,13S,14S,17S)-3-hydroxy-3-(methoxymethyl)-13-methylhexadecahydro-1H-cyclopenta[a]phenanthren-17-yl)ethyl)-1H-pyrazole-4-carbonitrile] | < 100 |
| C[C@@]1(O)CC[C@H]2[C@H](CC[C@@H]3[C@@H]2CC[C@]2(C)[C@@H](C4(Cn5cc(C#N)cn5)CC4)CC[C@@H]32)C1 [Compound 39, 1-((1-((3R,5R,8R,9R,10S,13S,14S,17S)-3-hydroxy-3,13-dimethylhexadecahydro-1H-cyclopenta[a]phenanthren-17-yl)cyclopropyl)methyl)-1H-pyrazole-4-carbonitrile] | < 100 |
| COC[C@@]1(O)CC[C@H]2[C@H](CC[C@@H]3[C@@H]2CC[C@]2(C)[C@@H](C4(Cn5cc(C#N)cn5)COC4)CC[C@@H]32)C1 [Compound 40, 1-((3-((3R,5R,8R,9R,10S,13S,14S,17S)-3-hydroxy-3-(methoxymethyl)-13-methylhexadecahydro-1H-cyclopenta[a]phenanthren-17-yl)oxetan-3-yl)methyl)-1H-pyrazole-4-carbonitrile] | < 100 |
| CC(C)(Cn1cc(C#N)cn1)[C@H]1CC[C@H]2[C@@H]3CC[C@@H]4C[C@](C)(O)CC[C@@H]4[C@H]3CC[C@]12C [Compound 41, 1-(2-((3R,5R,8R,9R,10S,13S,14S,17S)-3-hydroxy-3,13-dimethylhexadecahydro-1H-cyclopenta[a]phenanthren-17-yl)-2-methylpropyl)-1H-pyrazole-4-carbonitrile] | < 100 |
| CC[C@]12CC[C@](O)(COC)C[C@H]1CC[C@H]1[C@@H]3CC[C@H]([C@](C)(O)Cn4cc(C#N)cn4)[C@@]3(C)CC[C@@H]12 [Compound 42, 1-((S)-2-((3R,5R,8S,9S,10S,13S,14S,17S)-10-ethyl-3-hydroxy-3-(methoxymethyl)-13-methylhexadecahydro-1H-cyclopenta[a]phenanthren-17-yl)-2-hydroxypropyl)-1H-pyrazole-4-carbonitrile] | < 100 |
| CC[C@]12CC[C@](O)(COC)C[C@H]1CC[C@H]1[C@@H]3CC[C@H]([C@@](C)(O)Cn4cc(C#N)cn4)[C@@]3(C)CC[C@@H]12 [Compound 43, 1-((R)-2-((3R,5R,8S,9S,10S,13S,14S,17S)-10-ethyl-3-hydroxy-3-(methoxymethyl)-13-methylhexadecahydro-1H-cyclopenta[a]phenanthren-17-yl)-2-hydroxypropyl)-1H-pyrazole-4-carbonitrile] | < 100 |
| CCC[C@@]1(O)CC[C@@]2(CC)[C@H](CC[C@H]3[C@@H]4CC[C@H]([C@](C)(O)Cn5cc(C#N)cn5)[C@@]4(C)CC[C@@H]32)C1 [Compound 44, 1-((S)-2-((3R,5R,8S,9S,10S,13S,14S,17S)-10-ethyl-3-hydroxy-13-methyl-3-propylhexadecahydro-1H-cyclopenta[a]phenanthren-17-yl)-2-hydroxypropyl)-1H-pyrazole-4-carbonitrile] | < 100 |
| CCC[C@@]1(O)CC[C@@]2(CC)[C@H](CC[C@H]3[C@@H]4CC[C@H]([C@@](C)(O)Cn5cc(C#N)cn5)[C@@]4(C)CC[C@@H]32)C1 [Compound 45, 1-((R)-2-((3R,5R,8S,9S,10S,13S,14S,17S)-10-ethyl-3-hydroxy-13-methyl-3-propylhexadecahydro-1H-cyclopenta[a]phenanthren-17-yl)-2-hydroxypropyl)-1H-pyrazole-4-carbonitrile] | 100 to 1000 |
| C[C@@]1(O)CC[C@H]2[C@H](CC[C@@H]3[C@@H]2CC[C@@]2(C)[C@H]3[C@H](C3CC3)C[C@@H]2[C@@](C)(O)Cn2cc(C#N)cn2)C1 [Compound 46, 1-((R)-2-((3R,5R,8R,9R,10S,13S,14S,15S,17S)-15-cyclopropyl-3-hydroxy-3,13-dimethylhexadecahydro-1H-cyclopenta[a]phenanthren-17-yl)-2-hydroxypropyl)-1H-pyrazole-4-carbonitrile] | < 100 |
| C[C@@]1(O)CC[C@H]2[C@H](CC[C@@H]3[C@@H]2CC[C@@]2(C)[C@H]3[C@H](C3CC3)C[C@@H]2[C@](C)(O)Cn2cc(C#N)cn2)C1 [Compound 47, 1-((S)-2-((3R,5R,8R,9R,10S,13S,14S,15S,17S)-15-cyclopropyl-3-hydroxy-3,13-dimethylhexadecahydro-1H-cyclopenta[a]phenanthren-17-yl)-2-hydroxypropyl)-1H-pyrazole-4-carbonitrile] | < 100 |
| C[C@@H]1C[C@H]([C@](C)(O)Cn2cc(C#N)cn2)[C@@]2(C)CC[C@H]3[C@@H](CC[C@@H]4C[C@](C)(O)CC[C@@H]43)[C@H]12 [Compound 48, 1-((S)-2-hydroxy-2-((3R,5R,8R,9R,10S,13S,14S,15R,17S)-3-hydroxy-3,13,15-trimethylhexadecahydro-1H-cyclopenta[a]phenanthren-17-yl)propyl)-1H-pyrazole-4-carbonitrile] | < 100 |
| C[C@@H]1C[C@H]([C@@](C)(O)Cn2cc(C#N)cn2)[C@@]2(C)CC[C@H]3[C@@H](CC[C@@H]4C[C@](C)(O)CC[C@@H]43)[C@H]12 [Compound 49, 1-((R)-2-hydroxy-2-((3R,5R,8R,9R,10S,13S,14S,15R,17S)-3-hydroxy-3,13,15-trimethylhexadecahydro-1H-cyclopenta[a]phenanthren-17-yl)propyl)-1H-pyrazole-4-carbonitrile] | < 100 |
| C[C@H]1C[C@H]2[C@H](CC[C@@H]3[C@@H]2CC[C@@]2(C)[C@H]3CC[C@@H]2[C@](C)(O)Cn2cc(C#N)cn2)C[C@]1(C)O [Compound 50, 1-((S)-2-hydroxy-2-((2S,3S,5R,8R,9R,10S,13S,14S,17S)-3-hydroxy-2,3,13-trimethylhexadecahydro-1H-cyclopenta[a]phenanthren-17-yl)propyl)-1H-pyrazole-4-carbonitrile] | < 100 |
| C[C@H]1C[C@H]2[C@H](CC[C@@H]3[C@@H]2CC[C@@]2(C)[C@H]3CC[C@@H]2[C@@](C)(O)Cn2cc(C#N)cn2)C[C@]1(C)O [Compound 51, 1-((R)-2-hydroxy-2-((2S,3S,5R,8R,9R,10S,13S,14S,17S)-3-hydroxy-2,3,13-trimethylhexadecahydro-1H-cyclopenta[a]phenanthren-17-yl)propyl)-1H-pyrazole-4-carbonitrile] | < 100 |
